# Paper PMC8032764 (Scientific Reports, 2021)
# Where “and” joins values, the source holds several entries; their conditions need not be identical. Equal entries are not always repeated. Where two headings read alike, the source gives them in different places.
# Experiments:
# [1] = tested on: T1, Serotonin 5-HT5a; assay: Cerep binding; design: species or system human; settings: 10 μM; [3H]LSD; hum. recomb. (CHO)
# T1 construct: purchased Eurofins Cerep
# [2] = tested on: T2, Angiotensin AT1; assay: Cerep binding; design: species or system human; settings: 10 μM; [125I][Sar1,Ile8]-AT-II; hum. recomb. (HEK-293)
# T2 construct: purchased Eurofins Cerep
# [3] = target: human GABAA α5β3γ2 (Homo sapiens, UniProt P18507+P31644); assay: biochemical; settings: 1 nM [3H]-flumazenil
# Experimental: HEK293-EBNA cells adapted to grow in suspension were transiently transfected with the plasmids containing the desired GABAA receptor subunit cDNAs at α, β, γ, 1:1:2 ratio using XtremeGENE Q2 (Cat. No. 03045595001, Roche Applied Science, RAS, Rotkreuz, Switzerland) as previously described. GABAA α1β2γ2, α2β3γ2, α3β3γ2, α4β3γ2, α5β3γ2 and α6β3γ2 receptor subtypes were expressed in this system. 48 h post transfection, the cells were harvested and washed three times with cold PBS and frozen at − 80 °C.
# Non-specific binding was determined in the presence of 10 μM diazepam.
# [4] = tested on: T3, Neurokinin NK3; assay: Cerep binding; design: species or system human; settings: 10 μM; [3H]SR 142801; hum. recomb. (CHO)
# T3 construct: purchased Eurofins Cerep
# [5] = tested on: cynomolgus macaques; assay: Object retrieval task; type: in vivo, Macaca fascicularis; settings: 2 h prior to testing
# Experimental: Twelve cynomolgus macaques were presented with a clear acrylic box with one open side baited with a food treat, as described previously[14],[38]. The test is easy when the open side of the box is directed towards the subject and difficult when the open sides face other directions. […] Compound doses were administered in a pseudorandom order. Administration of dose and behavioral measurements were completed blind. Data were analysed using a one-way repeated measures ANOVA followed, in significant cases, by a post hoc Dunnett’s test. Plasma samples were collected from the same three subjects at each dose group at 3 h post administration.
# [6] = tested on: T4, Endothelin ETA; assay: Cerep binding; design: species or system human; settings: 10 μM; [125I]endothelin-1; hum. recomb. (CHO)
# T4 construct: purchased Eurofins Cerep
# [7] = tested on: T5, Muscarinic M1; assay: Cerep binding; design: species or system human; settings: 10 μM; [3H]pirenzepine; hum. recomb. (CHO)
# T5 construct: host or cells: CHO
# [8] = tested on: T6, Serotonin 5-HT7; assay: Cerep binding; design: species or system human; settings: 10 μM; [3H]LSD; hum. recomb. (CHO)
# T6 construct: purchased Eurofins Cerep
# [9] = tested on: T7, Adenosine A3; assay: Cerep binding; design: species or system human; settings: 10 μM; [125I]AB-MECA; hum. recomb. (HEK-293)
# T7 construct: host or cells: HEK-293
# [10] = tested on: T8, Adrenergic β1; assay: Cerep binding; design: species or system human; settings: 10 μM; [3H](-)CGP 12177; hum. recomb. (HEK-293)
# T8 construct: host or cells: HEK-293
# [11] = target: T9, GABAA-α5 receptors (Rattus norvegicus, UniProt P18508+P19969); assay: In vivo [3H]-Ro 15-4513 binding with ex vivo autoradiography (receptor occupancy); settings: hippocampus, Hill fit
# T9 construct: from tissue; host or cells: rat brain (hippocampus), in vivo with ex vivo autoradiography
# Experimental: Brains and blood were collected from each animal. Brains were divided in two halves along their sagittal axis and frozen in dry ice. […] Half of the brain was used for autoradiography, as described earlier. […] The percentage of receptor occupancy (y) was calculated from: y=1001-Sbasmisanil/Svehicle.
# The curve was fitted to the experimental results using the Hill equation (Eq. (1) with Hill coefficient D = 1).
# Sequence of human GABAA α5β3γ2 (P31644 32-462): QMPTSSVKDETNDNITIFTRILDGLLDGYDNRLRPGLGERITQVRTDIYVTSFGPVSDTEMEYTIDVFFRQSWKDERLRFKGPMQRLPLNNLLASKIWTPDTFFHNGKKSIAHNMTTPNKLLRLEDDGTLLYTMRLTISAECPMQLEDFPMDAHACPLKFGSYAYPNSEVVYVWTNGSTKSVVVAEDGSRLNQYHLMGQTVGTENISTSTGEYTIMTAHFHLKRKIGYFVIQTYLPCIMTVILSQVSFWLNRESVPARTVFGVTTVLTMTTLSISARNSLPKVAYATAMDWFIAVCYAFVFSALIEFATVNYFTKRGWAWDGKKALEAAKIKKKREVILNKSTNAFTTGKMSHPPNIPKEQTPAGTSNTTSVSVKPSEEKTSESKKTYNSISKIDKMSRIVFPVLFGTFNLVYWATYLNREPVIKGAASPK
# Sequence of human GABAA α5β3γ2 (P28472 26-473 partner): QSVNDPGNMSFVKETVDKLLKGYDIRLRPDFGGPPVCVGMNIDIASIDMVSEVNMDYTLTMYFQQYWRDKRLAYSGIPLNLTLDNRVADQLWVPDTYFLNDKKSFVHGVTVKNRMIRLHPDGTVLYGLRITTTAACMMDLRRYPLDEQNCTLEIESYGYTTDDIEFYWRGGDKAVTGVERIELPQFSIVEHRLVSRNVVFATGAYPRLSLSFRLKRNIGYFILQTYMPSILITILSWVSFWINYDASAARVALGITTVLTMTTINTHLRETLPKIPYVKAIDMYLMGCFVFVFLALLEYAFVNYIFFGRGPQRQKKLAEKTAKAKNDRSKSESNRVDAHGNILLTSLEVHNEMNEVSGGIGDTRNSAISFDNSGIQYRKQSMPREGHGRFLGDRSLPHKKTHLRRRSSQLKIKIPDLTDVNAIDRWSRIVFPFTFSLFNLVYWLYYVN
# Sequence of human GABAA α5β3γ2 (P18507 40-475): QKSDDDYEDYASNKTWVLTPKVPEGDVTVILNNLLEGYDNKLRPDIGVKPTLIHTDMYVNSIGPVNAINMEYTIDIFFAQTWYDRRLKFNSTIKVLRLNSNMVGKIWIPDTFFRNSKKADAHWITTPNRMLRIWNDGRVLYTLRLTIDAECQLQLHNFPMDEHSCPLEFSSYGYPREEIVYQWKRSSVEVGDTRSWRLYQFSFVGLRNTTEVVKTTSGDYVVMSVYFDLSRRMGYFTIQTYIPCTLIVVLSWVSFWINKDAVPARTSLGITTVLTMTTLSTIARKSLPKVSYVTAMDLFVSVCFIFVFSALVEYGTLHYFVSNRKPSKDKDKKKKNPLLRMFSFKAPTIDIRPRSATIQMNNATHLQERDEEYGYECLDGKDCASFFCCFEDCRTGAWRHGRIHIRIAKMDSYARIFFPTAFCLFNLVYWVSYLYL
# T9 sequence (P19969 32-464 limits assumed): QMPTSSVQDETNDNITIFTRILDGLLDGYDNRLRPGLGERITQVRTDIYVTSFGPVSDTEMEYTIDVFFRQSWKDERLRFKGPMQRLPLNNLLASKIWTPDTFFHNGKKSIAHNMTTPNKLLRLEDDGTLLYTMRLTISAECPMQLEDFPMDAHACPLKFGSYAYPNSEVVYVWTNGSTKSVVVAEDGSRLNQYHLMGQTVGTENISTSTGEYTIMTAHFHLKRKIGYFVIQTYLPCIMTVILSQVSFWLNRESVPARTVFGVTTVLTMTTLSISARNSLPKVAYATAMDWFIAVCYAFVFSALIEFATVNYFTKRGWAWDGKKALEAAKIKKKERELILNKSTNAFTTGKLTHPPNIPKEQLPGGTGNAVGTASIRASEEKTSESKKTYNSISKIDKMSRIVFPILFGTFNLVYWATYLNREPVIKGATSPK
# T9 sequence (P18508 39-466): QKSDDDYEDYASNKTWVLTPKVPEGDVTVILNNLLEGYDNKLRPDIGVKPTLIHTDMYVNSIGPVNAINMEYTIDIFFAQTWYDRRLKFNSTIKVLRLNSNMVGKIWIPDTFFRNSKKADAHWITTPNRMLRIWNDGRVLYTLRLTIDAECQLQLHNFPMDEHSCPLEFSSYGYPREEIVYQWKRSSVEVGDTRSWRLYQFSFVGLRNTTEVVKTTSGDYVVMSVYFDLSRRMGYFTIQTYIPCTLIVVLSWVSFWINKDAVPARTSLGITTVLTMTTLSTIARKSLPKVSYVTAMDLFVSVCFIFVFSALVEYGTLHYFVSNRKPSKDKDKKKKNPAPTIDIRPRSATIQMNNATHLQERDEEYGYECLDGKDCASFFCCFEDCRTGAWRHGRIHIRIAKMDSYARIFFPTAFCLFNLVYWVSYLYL
# T9 sequence (P63079 26-473 partner): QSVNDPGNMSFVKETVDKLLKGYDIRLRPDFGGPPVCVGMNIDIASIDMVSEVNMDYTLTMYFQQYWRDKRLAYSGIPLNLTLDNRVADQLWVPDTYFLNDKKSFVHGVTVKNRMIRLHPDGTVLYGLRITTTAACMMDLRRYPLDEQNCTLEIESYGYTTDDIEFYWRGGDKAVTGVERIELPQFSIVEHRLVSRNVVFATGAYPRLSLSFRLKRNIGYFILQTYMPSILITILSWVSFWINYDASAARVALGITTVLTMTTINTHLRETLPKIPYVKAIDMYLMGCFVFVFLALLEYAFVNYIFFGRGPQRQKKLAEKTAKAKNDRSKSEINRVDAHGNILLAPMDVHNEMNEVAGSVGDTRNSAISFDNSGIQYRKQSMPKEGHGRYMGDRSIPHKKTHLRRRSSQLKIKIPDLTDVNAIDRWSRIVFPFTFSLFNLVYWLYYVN
smiles,measurement,setting,value
Cc1onc(-c2ccc(F)cc2)c1COc1ccc(C(=O)N2CCS(=O)(=O)CC2)cn1 [basmisanil],% Inhibition,[1],5%
same,% Inhibition,[2],2%
same,Ki,[3],0.005 µM and 0.0051 µM
same,% Inhibition,[4],-9%
same,percentage of correct first reaches during difficult trials,[5]; 1 and 30 mg/kg p.o.,no marked improvement on performance
same,percentage of correct first reaches during difficult trials,[5]; 3 and 10 mg/kg p.o.,significantly improved
same,% Inhibition,[6],8%
same,% Inhibition,[7],6%
same,% Inhibition,[8],13%
same,% Inhibition,[9],6%
same,% Inhibition,[10],6%
same,EC50,"[11]; free plasma, read-out: free plasma concentration for half-maximal receptor occupancy (EC50)",0.171 ± 0.016 µM
same,EC50,"[11]; total plasma, read-out: plasma level for half-maximal receptor occupancy (EC50) (converted)",1.22 µM
